Results from ChEMBL document CHEMBL5143648, “Exploration of inhibitors of the bacterial LexA repressor-protease” (Bioorg Med Chem Lett, 2022).

Experiment: Inhibition of N-terminal tetra-cysteine tagged LexA repressor (unknown origin) assessed as reduction in RecA-mediated autoproteolysis by measuring release of fluorophore-labeled peptide using FlAsH-EDT2 as fluorescent substrate by FlAsH-LexA assay
Parameters: species or system Bacteria

IC50 [µM] | Structure (SMILES)
> 250 | Cc1ccccc1NC(=O)Cn1nnc(C(=O)Nc2ccccc2)c1N
> 250 | Nc1c(C(=O)Nc2ccccc2)nnn1CC(=O)Nc1c(Cl)cc(Cl)cc1Cl
> 250 | Nc1ccc(NC(=O)Cn2nnc(C(=O)Nc3ccccc3)c2N)cc1
107 | Cc1ccc(NC(=O)Cn2nnc(C(=O)Nc3ccccc3)c2N)cc1
48 | CCOc1ccc(NC(=O)Cn2nnc(C(=O)Nc3ccccc3)c2N)cc1
> 250 | Nc1c(C(=O)Nc2ccccc2)nnn1CC(=O)Nc1ccc(C(=O)C(F)(F)F)cc1
> 250 | Nc1c(C(=O)Nc2ccccc2)nnn1CC(=O)Nc1ccc(O)cc1
75 | COC(=O)c1ccc(NC(=O)Cn2nnc(C(=O)Nc3ccccc3)c2N)cc1
> 250 | Nc1c(C(=O)Nc2ccccc2)nnn1CC(=O)NC1CCCCCC1
> 250 | Cc1ccc(NC(=O)Cn2nnc(C(=O)Nc3ccccc3)c2N)c(C)c1
> 250 | Cc1ccc(/N=C2\NC(=O)C(N)=C2C(=O)Nc2ccccc2)cc1
> 250 | Nc1c(C(=O)Nc2ccccc2)nnn1CC(=O)Nc1ccc(Cl)cc1
